Experimental data reported in publication PMC8550792, “Evolution of kinase polypharmacology across HSP90 drug discovery” (Cell Chemical Biology, 2021).

Tests used:
Test in all cases: biochemical
Type in all cases: biochemical
382 unique human kinases [1] = molecular target: T1, 382 unique human kinases (Homo sapiens, UniProt O96017); conditions: kinase CHK2, compound 10 uM; for remaining activity at 10 µM: read-out: % Enzyme Activity (relative to DMSO controls)
T1 construct: purchased Reaction Biology (HotSpot contract assay)

382 unique human kinases [2] = molecular target: T2, 382 unique human kinases (Homo sapiens, UniProt Q6XUX3); conditions: RIPK5, 10 uM; for remaining activity at 10 µM: read-out: % Enzyme Activity (relative to DMSO controls)
T2 construct: purchased Reaction Biology (HotSpot contract assay)
T2 sequence (Q6XUX3 1-929): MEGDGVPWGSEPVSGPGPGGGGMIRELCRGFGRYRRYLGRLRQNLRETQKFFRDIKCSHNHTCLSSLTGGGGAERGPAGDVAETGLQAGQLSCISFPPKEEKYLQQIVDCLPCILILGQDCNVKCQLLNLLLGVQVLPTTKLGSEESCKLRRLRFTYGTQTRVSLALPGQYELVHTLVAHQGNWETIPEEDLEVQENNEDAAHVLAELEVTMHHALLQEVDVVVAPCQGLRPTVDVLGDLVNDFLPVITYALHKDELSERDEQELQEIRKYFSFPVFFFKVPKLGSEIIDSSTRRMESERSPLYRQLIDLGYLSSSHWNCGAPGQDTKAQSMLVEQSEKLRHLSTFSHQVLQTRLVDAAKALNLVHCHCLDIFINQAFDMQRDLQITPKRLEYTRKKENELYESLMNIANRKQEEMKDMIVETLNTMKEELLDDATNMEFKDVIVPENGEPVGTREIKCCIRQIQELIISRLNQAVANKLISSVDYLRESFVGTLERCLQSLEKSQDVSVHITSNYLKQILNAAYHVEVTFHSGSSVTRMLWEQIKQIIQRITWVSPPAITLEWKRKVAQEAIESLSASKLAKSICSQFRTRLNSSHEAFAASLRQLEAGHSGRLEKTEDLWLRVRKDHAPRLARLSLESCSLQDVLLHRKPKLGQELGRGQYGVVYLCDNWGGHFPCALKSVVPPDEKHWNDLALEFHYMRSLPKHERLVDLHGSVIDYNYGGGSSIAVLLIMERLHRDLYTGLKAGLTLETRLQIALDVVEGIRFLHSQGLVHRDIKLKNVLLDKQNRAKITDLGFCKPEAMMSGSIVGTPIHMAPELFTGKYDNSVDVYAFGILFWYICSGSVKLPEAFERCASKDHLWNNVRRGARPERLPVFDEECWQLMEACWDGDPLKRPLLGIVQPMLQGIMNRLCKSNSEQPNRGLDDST

382 unique human kinases [3] = molecular target: T3, 382 unique human kinases (Homo sapiens, UniProt Q96RR4); conditions: kinase CAMKK2, compound 10 uM; for remaining activity at 10 µM: read-out: % Enzyme Activity (relative to DMSO controls)
T3 construct: purchased Reaction Biology (HotSpot contract assay)

382 unique human kinases [4] = molecular target: T4, 382 unique human kinases (Homo sapiens, UniProt Q9H3Y6); conditions: SRMS, compound at 10 uM, duplicate values; for remaining activity at 10 µM: read-out: % Enzyme Activity (relative to DMSO controls)
T4 construct: purchased Reaction Biology (HotSpot contract assay)

382 unique human kinases [5] = molecular target: T5, 382 unique human kinases (Homo sapiens, UniProt O60285); conditions: ARK5/NUAK1, 10 uM; for remaining activity at 10 µM: read-out: % Enzyme Activity (relative to DMSO controls)
T5 construct: purchased Reaction Biology (HotSpot contract assay)
T5 sequence (O60285 1-661): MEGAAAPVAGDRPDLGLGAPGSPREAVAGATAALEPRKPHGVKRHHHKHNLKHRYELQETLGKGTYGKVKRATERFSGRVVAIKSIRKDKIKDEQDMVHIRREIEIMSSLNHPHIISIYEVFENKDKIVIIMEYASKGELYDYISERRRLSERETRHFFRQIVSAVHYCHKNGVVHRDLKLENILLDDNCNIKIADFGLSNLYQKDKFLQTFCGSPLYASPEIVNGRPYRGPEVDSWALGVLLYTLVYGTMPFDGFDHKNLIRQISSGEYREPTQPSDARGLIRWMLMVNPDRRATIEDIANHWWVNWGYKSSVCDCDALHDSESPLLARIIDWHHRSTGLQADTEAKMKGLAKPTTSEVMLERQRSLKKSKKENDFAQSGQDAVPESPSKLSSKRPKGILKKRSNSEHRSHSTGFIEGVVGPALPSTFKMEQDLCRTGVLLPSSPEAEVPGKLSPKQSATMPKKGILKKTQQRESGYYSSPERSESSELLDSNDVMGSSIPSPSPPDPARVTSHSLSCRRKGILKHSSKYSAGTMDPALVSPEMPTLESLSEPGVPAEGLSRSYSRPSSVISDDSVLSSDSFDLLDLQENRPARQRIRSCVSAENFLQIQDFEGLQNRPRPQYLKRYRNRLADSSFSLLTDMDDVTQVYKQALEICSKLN

382 unique human kinases [6] = molecular target: T6, 382 unique human kinases (Homo sapiens, UniProt P10721, V559A); conditions: c-Kit (V559A), [ATP] 100 µM, compound 10 uM; for remaining activity at 10 µM: read-out: % Enzyme Activity (relative to DMSO controls)
T6 construct: purchased Reaction Biology (HotSpot contract assay)

382 unique human kinases [7] = molecular target: T7, 382 unique human kinases (Homo sapiens, UniProt P34947); conditions: GRK5, 10 uM; for remaining activity at 10 µM: read-out: % Enzyme Activity (relative to DMSO controls)
T7 construct: purchased Reaction Biology (HotSpot contract assay)

382 unique human kinases [8] = molecular target: T8, 382 unique human kinases (Homo sapiens, UniProt P45983); conditions: JNK1, 10 uM; for remaining activity at 10 µM: read-out: % Enzyme Activity (relative to DMSO controls)
T8 construct: purchased Reaction Biology (HotSpot contract assay)

382 unique human kinases [9] = molecular target: T9, 382 unique human kinases (Homo sapiens, UniProt P45985); conditions: MKK4, [ATP] 2.5 µM, compound 10 uM; for remaining activity at 10 µM: read-out: % Enzyme Activity (relative to DMSO controls)
T9 construct: purchased Reaction Biology (HotSpot contract assay)
T9 sequence (P45985 1-399): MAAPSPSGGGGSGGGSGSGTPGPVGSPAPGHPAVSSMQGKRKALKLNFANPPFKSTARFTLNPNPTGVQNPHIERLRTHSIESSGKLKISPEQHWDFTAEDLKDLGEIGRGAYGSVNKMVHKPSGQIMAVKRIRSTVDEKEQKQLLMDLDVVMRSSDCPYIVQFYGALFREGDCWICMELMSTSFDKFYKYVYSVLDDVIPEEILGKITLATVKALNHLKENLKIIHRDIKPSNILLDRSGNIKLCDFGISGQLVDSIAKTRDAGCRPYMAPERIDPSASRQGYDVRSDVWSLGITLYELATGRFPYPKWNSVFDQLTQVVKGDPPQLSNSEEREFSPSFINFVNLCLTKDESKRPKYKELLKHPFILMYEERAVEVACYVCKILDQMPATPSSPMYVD

382 unique human kinases [10] = molecular target: T10, 382 unique human kinases (Homo sapiens, UniProt P51451); conditions: BLK, [ATP] 10 µM
T10 construct: purchased Reaction Biology (HotSpot contract assay)

382 unique human kinases [11] = molecular target: T11, 382 unique human kinases (Homo sapiens, UniProt Q9UQM7); conditions: CAMK2a, 10 uM; for remaining activity at 10 µM: read-out: % Enzyme Activity (relative to DMSO controls)
T11 construct: purchased Reaction Biology (HotSpot contract assay)

[12] = compound 10 uM, read-out: % Enzyme Activity (relative to DMSO controls)

T3 sequence (Q96RR4 whole entry): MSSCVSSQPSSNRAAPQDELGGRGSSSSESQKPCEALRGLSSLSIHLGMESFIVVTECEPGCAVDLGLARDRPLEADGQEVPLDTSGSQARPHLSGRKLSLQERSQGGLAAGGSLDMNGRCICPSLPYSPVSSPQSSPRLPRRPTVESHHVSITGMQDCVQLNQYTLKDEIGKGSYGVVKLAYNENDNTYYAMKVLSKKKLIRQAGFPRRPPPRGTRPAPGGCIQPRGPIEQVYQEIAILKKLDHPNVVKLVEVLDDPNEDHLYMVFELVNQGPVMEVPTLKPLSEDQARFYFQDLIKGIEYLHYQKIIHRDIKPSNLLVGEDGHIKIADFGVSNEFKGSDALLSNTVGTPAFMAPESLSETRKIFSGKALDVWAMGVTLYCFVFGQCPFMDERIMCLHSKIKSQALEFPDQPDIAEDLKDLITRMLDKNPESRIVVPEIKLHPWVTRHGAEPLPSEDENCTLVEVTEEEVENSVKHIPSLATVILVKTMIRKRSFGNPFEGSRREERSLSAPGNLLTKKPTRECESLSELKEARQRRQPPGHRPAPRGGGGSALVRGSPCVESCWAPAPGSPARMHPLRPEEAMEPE
T8 sequence (P45983 whole entry): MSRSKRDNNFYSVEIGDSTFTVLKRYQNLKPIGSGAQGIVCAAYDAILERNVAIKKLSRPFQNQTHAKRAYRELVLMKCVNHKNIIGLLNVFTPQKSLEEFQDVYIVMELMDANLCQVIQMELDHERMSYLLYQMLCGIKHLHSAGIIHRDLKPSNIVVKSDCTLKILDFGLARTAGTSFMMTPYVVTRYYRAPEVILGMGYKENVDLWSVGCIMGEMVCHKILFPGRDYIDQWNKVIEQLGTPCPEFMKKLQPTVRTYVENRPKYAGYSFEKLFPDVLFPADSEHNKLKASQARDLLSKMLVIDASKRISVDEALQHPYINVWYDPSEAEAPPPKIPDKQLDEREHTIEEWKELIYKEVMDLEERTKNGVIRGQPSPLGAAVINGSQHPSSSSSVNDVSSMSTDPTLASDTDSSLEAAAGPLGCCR
T4 sequence (Q9H3Y6 whole entry): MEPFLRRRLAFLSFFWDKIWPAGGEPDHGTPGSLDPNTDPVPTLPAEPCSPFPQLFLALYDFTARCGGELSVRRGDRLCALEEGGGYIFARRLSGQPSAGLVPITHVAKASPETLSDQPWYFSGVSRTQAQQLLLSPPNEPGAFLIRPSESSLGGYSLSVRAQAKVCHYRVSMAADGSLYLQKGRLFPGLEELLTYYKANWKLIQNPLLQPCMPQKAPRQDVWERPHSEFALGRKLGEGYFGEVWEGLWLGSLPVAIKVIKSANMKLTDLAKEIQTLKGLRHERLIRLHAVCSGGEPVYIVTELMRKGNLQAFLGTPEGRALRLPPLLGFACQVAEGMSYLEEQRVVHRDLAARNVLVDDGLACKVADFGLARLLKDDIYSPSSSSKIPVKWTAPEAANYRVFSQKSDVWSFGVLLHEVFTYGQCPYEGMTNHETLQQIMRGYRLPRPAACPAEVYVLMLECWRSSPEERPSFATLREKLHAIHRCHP
T7 sequence (P34947 whole entry): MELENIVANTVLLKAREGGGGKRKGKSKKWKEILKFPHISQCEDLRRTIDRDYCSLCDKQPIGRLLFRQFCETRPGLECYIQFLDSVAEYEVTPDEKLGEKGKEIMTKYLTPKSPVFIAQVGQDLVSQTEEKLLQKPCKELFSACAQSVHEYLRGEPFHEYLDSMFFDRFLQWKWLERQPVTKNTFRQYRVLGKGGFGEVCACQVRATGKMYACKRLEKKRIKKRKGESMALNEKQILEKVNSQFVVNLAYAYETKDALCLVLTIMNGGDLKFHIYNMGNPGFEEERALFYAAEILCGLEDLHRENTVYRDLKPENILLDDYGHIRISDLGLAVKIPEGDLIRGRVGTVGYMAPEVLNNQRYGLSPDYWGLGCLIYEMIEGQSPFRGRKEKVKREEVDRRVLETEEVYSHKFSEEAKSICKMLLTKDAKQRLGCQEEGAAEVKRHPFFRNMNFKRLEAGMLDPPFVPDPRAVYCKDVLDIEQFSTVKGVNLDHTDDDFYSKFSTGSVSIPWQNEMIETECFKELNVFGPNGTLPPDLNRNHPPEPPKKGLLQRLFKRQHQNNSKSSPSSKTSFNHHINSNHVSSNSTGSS
T1 sequence (O96017 whole entry): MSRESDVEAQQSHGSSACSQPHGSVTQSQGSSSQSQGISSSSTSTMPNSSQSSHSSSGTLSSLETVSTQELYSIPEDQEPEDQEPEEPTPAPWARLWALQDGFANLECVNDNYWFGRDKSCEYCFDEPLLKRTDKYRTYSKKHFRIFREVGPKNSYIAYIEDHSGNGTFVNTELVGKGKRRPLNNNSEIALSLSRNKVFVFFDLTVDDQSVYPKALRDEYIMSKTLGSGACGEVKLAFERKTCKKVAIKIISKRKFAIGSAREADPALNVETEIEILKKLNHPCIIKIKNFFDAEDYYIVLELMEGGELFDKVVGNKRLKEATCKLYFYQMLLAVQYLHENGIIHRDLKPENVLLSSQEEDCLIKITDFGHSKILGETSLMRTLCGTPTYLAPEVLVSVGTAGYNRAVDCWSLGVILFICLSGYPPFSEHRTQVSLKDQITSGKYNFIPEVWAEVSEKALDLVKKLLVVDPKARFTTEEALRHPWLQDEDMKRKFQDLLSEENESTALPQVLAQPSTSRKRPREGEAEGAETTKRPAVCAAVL
T10 sequence (P51451 whole entry): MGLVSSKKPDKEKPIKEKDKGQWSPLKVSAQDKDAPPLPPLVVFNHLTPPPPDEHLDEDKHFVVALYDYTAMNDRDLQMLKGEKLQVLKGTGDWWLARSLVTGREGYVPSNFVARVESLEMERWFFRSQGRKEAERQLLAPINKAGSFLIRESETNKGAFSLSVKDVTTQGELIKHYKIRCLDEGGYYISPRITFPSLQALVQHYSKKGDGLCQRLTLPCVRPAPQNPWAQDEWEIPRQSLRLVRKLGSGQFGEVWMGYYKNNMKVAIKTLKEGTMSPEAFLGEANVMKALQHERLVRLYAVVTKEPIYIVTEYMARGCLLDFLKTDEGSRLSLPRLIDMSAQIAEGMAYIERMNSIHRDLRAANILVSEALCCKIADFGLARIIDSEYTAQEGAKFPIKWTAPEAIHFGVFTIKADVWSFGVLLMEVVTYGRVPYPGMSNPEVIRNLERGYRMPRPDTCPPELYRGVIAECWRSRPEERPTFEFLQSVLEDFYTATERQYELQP
T11 sequence (Q9UQM7 whole entry): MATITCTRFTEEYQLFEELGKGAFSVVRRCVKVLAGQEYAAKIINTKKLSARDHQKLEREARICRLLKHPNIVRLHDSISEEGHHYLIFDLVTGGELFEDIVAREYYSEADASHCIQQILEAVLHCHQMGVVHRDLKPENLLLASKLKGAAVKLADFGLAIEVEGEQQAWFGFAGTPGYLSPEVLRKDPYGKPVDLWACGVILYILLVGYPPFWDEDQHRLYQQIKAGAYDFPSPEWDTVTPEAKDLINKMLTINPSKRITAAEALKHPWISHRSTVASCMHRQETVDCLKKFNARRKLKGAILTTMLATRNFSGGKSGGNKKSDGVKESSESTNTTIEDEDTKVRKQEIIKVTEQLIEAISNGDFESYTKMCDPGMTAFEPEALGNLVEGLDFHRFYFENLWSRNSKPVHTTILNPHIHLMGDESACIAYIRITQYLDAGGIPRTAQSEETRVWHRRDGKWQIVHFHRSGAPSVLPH
T6 sequence (P10721 26-976 V559A): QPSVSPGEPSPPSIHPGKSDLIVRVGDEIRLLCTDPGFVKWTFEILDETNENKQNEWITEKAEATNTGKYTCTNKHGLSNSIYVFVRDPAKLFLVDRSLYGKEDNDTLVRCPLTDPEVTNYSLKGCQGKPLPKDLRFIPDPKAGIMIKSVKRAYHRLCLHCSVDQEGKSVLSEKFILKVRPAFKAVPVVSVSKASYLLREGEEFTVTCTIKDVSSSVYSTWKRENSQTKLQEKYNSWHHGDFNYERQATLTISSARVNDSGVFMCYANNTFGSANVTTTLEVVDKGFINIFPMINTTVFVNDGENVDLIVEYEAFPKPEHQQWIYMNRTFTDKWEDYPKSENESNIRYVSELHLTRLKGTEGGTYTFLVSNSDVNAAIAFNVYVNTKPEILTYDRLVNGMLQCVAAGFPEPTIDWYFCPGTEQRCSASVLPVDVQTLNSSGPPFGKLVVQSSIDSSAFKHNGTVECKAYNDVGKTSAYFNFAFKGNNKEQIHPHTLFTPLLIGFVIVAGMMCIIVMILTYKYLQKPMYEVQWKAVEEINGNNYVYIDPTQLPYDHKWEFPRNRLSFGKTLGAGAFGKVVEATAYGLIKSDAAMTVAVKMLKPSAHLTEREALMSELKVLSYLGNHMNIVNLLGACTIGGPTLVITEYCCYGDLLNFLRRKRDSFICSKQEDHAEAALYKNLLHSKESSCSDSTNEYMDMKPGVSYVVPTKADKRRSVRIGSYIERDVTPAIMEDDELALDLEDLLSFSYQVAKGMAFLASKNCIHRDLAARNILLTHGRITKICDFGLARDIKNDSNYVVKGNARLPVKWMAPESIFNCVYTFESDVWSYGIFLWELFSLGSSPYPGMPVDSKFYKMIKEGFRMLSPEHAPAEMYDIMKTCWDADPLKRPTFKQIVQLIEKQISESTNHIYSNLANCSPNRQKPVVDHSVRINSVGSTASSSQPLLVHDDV

SMILES | remaining activity at 10 µM (382 unique human kinases [1]) [%] | remaining activity at 10 µM (382 unique human kinases [2]) [%] | remaining activity at 10 µM (382 unique human kinases [3]) [%] | remaining activity at 10 µM (382 unique human kinases [4]) [%] | remaining activity at 10 µM (382 unique human kinases [5]) [%] | remaining activity at 10 µM (382 unique human kinases [6]) [%] | remaining activity at 10 µM (382 unique human kinases [7]) [%] | remaining activity at 10 µM (382 unique human kinases [8]) [%] | remaining activity at 10 µM (382 unique human kinases [9]) [%] | remaining activity at 10 µM (382 unique human kinases [10]; [12]) [%] | remaining activity at 10 µM (382 unique human kinases [11]) [%] | other results
CC(C)c1cc(-c2n[nH]c(=O)n2-c2ccc3c(ccn3C)c2)c(O)cc1O [Ganetespib (STA9090)] | 84.6 | 95.4 | 89.7 | 109 |  |  |  |  |  |  |  | 
CC(C)c1cc(-c2n[nH]c(=O)n2-c2ccc3c(ccn3C)c2)c(O)cc1O [Ganetespib] |  |  |  |  | 97.3 | 43.9 | 96 | 99.3 | 55.2 | 7.74 | 91.1 | remaining activity at 1 µM (382 unique human kinases [10]; compound 1 uM, read-out: % Enzyme Activity (relative to DMSO controls)): 38.4%
CCNC(=O)c1noc(-c2cc(C(C)C)c(O)cc2O)c1-c1ccc(CN2CCOCC2)cc1 [Luminespib (AUY-922)] | 104 | 79.8 | 110 | 111 |  |  |  |  |  |  |  | % Enzyme Activity (relative to DMSO controls) (382 unique human kinases [1]): 102.76%; % Enzyme Activity (relative to DMSO controls) (382 unique human kinases [2]): 77.60%; % Enzyme Activity (relative to DMSO controls) (382 unique human kinases [3]): 109.01%; % Enzyme Activity (relative to DMSO controls) (382 unique human kinases [4]): 110.03%
CCNC(=O)c1noc(-c2cc(C(C)C)c(O)cc2O)c1-c1ccc(CN2CCOCC2)cc1 [Luminespib] |  |  |  |  | 93.9 | 61.6 | 102 | 103 | 98.4 | 38.1 | 104 | % Enzyme Activity (relative to DMSO controls) (382 unique human kinases [5]): 92.57%; % Enzyme Activity (relative to DMSO controls) (382 unique human kinases [6]): 61.54%; % Enzyme Activity (relative to DMSO controls) (382 unique human kinases [7]): 101.05%; % Enzyme Activity (relative to DMSO controls) (382 unique human kinases [8]): 101.32%; % Enzyme Activity (relative to DMSO controls) (382 unique human kinases [9]): 93.71%; % Enzyme Activity (relative to DMSO controls) (382 unique human kinases [10]; compound 10 uM): 36.97%; % Enzyme Activity (relative to DMSO controls) (382 unique human kinases [11]): 102.76%
